The target of one experiment is Melanocortin receptor 4 (Homo sapiens, UniProt P32245). The format is functional, cell-based.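 Further: Cell-based assay with luminescence read-out, confirmatory dose-response testing for agonist activity of biased ligands at MC4R; human U2OS cells with tagged receptor and beta-arrestin; potency of agonists that increase receptor coupling to beta-arrestin.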
Experiment [1] in a line: microbe, parasite or virus in culture. In kind it is functional. Particulars: Mycobacterium tuberculosis.
The target of experiment [2] is Potassium voltage-gated channel subfamily KQT member 2 (Rattus norvegicus, UniProt O88943). Kind of experiment: KCNQ2 potassium channel inhibitors, dose response, cell-based, automated electrophysiology, set II, rat KCNQ2 (AID 588637). The format is functional.
Sequence of Potassium voltage-gated channel subfamily KQT member 2 (O88943 whole entry): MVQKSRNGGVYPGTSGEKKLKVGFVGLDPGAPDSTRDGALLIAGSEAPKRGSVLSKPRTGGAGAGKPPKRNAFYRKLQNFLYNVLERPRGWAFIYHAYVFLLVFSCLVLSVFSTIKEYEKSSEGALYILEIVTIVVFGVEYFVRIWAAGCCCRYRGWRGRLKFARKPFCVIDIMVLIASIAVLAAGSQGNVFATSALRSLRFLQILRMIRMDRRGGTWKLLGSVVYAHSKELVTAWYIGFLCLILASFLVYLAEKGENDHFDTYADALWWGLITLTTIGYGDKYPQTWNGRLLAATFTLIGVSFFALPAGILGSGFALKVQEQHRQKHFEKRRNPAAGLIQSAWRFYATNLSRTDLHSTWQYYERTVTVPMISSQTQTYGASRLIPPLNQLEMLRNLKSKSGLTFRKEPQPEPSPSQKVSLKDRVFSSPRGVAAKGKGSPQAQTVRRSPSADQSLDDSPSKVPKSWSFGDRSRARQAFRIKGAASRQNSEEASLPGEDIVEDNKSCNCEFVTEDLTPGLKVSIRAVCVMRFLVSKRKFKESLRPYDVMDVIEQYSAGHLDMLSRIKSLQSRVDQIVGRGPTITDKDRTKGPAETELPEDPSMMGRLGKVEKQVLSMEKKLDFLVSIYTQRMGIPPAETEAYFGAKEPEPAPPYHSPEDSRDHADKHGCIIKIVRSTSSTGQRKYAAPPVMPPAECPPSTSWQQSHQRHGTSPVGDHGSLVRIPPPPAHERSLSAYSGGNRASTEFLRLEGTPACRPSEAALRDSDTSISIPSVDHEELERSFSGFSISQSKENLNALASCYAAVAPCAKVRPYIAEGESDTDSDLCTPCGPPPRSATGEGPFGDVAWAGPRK
The target in experiment [3] is T1, Apoptotic protease-activating factor 1 (Homo sapiens, UniProt O14727).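 Further: caspase-3 cleavage of fluorogenic Rh110 DEVD substrate downstream of apoptosome activation.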
T1 sequence (O14727 whole entry): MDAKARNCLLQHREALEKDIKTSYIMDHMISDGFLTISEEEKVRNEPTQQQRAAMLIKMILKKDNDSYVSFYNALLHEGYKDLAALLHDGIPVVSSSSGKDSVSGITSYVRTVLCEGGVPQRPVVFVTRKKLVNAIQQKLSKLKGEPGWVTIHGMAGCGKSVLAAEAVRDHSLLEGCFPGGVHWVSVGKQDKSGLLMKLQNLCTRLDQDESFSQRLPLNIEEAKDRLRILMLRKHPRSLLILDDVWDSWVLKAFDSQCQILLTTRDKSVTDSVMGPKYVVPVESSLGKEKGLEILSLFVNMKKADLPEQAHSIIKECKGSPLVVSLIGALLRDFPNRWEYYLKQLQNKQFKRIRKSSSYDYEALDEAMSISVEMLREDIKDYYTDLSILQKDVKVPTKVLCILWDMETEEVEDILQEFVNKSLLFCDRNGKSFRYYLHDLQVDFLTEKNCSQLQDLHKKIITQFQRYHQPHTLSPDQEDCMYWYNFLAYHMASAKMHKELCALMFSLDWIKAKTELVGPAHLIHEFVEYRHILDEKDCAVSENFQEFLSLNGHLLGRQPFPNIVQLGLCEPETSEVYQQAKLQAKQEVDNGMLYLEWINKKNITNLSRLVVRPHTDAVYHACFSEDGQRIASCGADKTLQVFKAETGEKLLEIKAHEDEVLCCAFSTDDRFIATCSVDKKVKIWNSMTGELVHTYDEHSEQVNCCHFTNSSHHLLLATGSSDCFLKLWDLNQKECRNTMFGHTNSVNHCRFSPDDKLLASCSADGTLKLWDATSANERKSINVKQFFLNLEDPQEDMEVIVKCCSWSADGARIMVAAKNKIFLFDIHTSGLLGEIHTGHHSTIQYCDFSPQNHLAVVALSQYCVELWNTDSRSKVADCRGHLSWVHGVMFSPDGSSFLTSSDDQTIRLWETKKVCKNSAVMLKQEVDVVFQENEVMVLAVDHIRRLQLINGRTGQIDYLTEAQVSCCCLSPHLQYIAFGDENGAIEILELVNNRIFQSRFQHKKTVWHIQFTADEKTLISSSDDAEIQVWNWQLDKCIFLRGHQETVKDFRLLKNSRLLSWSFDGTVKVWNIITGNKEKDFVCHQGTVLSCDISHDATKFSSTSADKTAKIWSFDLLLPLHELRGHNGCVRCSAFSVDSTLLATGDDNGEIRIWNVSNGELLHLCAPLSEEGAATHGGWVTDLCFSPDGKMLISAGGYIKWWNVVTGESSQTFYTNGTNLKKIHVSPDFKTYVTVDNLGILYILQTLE
Nature of the experiment: SAR analysis of small molecule Activators of Apaf-1 in a Fluorescent assay. The format is functional. Particulars: read-out: EC50_Mean.

For experiment [4], the target named is Testis-specific serine/threonine-protein kinase 2 (Homo sapiens, UniProt Q96PF2). In kind it is functional.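 Further: part of the Navigating the Kinome panel, target entry STK22B.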
Sequence of Testis-specific serine/threonine-protein kinase 2 (Q96PF2 whole entry): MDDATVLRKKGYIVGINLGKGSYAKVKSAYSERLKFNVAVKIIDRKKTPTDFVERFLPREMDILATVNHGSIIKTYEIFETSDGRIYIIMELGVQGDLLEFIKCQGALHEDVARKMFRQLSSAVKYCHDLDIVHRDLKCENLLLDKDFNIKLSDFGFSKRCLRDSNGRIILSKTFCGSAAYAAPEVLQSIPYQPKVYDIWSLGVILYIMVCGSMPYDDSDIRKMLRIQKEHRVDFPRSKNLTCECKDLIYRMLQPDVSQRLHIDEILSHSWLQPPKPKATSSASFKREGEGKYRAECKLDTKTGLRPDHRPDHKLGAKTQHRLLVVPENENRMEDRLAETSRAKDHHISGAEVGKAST
The target in experiment [5] is T2, DNA dC->dU-editing enzyme APOBEC-3A (Homo sapiens, UniProt P31941). Nature of the experiment: SAR analysis of small molecule inhibitors of APOBEC3A DNA Deaminase via a fluorescence-based single-stranded DNA deaminase assay. In kind it is functional. Particulars: read-out: IC50_Mean.
T2 sequence (P31941 whole entry): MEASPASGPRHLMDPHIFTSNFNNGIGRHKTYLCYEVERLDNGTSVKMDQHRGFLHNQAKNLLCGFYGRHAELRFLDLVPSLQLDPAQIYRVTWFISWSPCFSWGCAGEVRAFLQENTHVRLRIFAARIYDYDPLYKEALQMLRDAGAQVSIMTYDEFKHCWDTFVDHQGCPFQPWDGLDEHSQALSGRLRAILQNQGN
Experiment [6] concerns the target T2, DNA dC->dU-editing enzyme APOBEC-3A. Kind of experiment: Dose Response confirmation of small molecule APOBEC3A DNA Deaminase Inhibitors via a fluorescence-based single-stranded DNA deaminase assay. [Related pubchem assays (depositor defined):AID493011, AID493024]. In kind it is functional.
The target in experiment [7] is T3, DNA dC->dU-editing enzyme APOBEC-3G (Homo sapiens, UniProt Q9HC16). In kind it is functional.
T3 sequence (Q9HC16 whole entry): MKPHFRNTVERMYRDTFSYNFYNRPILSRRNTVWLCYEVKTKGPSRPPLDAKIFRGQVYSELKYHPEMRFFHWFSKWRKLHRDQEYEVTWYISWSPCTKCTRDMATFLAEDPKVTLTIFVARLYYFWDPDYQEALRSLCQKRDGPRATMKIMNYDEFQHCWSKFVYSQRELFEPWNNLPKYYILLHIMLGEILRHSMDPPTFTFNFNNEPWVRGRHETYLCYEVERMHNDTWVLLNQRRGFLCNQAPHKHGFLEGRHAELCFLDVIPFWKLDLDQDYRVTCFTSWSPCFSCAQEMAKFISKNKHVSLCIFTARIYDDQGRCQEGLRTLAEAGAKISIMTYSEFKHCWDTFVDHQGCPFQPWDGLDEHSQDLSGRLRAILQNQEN
In experiment [8] the target is T2, DNA dC->dU-editing enzyme APOBEC-3A. Nature of the experiment: SAR analysis of small molecule inhibitors of APOBEC3A DNA Deaminase via a fluorescence-based single-stranded DNA deaminase assay - Set 2. In kind it is functional. Particulars: read-out: IC50_Mean.
For experiment [9], the target named is T3, DNA dC->dU-editing enzyme APOBEC-3G. Kind of experiment: SAR analysis of small molecule inhibitors of APOBEC3G DNA Deaminase via a fluorescence-based single-stranded DNA deaminase assay - Set 2. The format is functional. The settings on record: read-out: IC50_Mean.
The target is the same in experiment [10]. Kind of experiment: APOBEC3G deaminase inhibitors, SAR follow-up, biochemical, fluorescence, single-stranded DNA substrate (AID 602136). The format is functional. Particulars: read-out: IC50_Mean.
A short description of experiment [11]: ARNT/TACC3 interaction disruptors, potency, confirmation, biochemical, AlphaScreen, cherry-picked samples (AID 651703).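 Further: His-tagged ARNT PAS-B domain paired with GST-TACC3 E629A dimer coactivator fragment; potency of inhibitors that break up the complex and lower AlphaScreen signal.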 The format is functional, Homo sapiens.
The next experiment relates to Streptococcus. Nature of the experiment: Group A Streptococcus viability loss, dose response, counter-screen for streptokinase expression inhibitor project, luminescence, BacTiterGlo (AID 1915).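 Further: potency for reduction of bacterial viability or growth.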 The format is functional, organism-based.
The target in experiment [12] is 72 kDa type IV collagenase (Homo sapiens, UniProt P08253). Kind of experiment: Dose Response validation of uHTS RPN11 inhibitor hits using a MMP-2 Fluorescence assay. The format is functional.
Sequence of 72 kDa type IV collagenase (P08253 whole entry): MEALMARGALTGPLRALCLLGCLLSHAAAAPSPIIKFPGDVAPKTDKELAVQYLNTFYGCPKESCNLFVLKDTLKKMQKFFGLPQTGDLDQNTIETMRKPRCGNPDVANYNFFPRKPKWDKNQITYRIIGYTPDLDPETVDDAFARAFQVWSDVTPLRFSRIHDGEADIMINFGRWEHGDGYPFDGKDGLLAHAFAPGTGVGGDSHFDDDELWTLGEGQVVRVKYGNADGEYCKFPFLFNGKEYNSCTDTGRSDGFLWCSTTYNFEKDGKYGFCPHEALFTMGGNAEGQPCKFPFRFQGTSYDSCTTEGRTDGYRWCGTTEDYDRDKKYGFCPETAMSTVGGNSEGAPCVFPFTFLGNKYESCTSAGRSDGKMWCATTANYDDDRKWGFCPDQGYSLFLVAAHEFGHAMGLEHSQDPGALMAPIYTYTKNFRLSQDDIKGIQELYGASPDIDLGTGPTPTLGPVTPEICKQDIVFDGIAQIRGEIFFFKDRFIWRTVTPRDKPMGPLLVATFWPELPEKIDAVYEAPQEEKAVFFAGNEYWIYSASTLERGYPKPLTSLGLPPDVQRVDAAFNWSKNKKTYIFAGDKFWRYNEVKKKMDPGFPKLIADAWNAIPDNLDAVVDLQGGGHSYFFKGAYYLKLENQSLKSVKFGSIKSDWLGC
A further experiment concerns the target Prothrombin (Bos taurus, UniProt P00735). Nature of the experiment: thrombin inhibition, dose response, biochemical, fluorescence polarization, uHTS hits (AID 602369). The format is functional.
Experiment [13] has as its system Streptococcus sp. 'group A'. Nature of the experiment: growth inhibition of control SK(-) GAS strain, dose response, counter-screen for streptokinase expression inhibitor project, luminescence, kanamycin, BacTiterGlo, confirmation (AID 1900). The format is functional, organism-based.
In experiment [14] the target is 26S proteasome non-ATPase regulatory subunit 14 (Homo sapiens, UniProt O00487). Kind of experiment: inhibition of proteasome subunit RPN11 – biochemical, fluorescence polarization, uHTS hits, confirmation (AID 602368). In kind it is functional.
Sequence of 26S proteasome non-ATPase regulatory subunit 14 (O00487 whole entry): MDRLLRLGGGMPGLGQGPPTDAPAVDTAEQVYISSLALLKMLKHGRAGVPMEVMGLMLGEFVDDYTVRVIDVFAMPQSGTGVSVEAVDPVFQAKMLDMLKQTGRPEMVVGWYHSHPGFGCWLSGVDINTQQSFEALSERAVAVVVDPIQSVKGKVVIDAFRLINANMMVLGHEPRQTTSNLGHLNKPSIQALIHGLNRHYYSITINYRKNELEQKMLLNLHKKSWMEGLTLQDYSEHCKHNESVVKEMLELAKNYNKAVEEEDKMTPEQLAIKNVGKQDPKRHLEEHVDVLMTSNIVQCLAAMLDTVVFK

Active and inactive are the calls of the source. Bounds are passed on as bounds.

Sequence of Melanocortin receptor 4 (P32245 whole entry): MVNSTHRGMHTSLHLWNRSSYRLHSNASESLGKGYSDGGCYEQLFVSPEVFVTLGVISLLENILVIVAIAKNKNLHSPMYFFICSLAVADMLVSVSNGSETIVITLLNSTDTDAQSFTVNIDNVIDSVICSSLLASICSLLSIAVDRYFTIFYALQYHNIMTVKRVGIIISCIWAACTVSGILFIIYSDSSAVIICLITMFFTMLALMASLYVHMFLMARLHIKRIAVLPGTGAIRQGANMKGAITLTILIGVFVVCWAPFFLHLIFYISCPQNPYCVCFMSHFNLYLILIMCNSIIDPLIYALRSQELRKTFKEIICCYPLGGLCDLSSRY

`COC(=O)c1c(NC(=O)CC2SC(N)=NC2=O)sc2c1CCC(C(C)(C)C)C2` (configuration not stated): at Melanocortin receptor 4, the EC50 is > 89.2 µM (inactive). Also, in experiment [1], the CC50 was > 40 µM (active).
`O=C(CSc1nc2ccccc2c(=O)n1NC(=O)c1ccccc1)c1ccccc1`: the IC50 in [2] was 513 nM (active).
Consider `O=C1CC2(CC(c3ccccc3Cl)=NO2)C(=O)N1c1ccc2ccccc2c1` (configuration not stated), for which the EC50 in experiment [3] is > 100 µM (inactive).
For `CC1CCN(C(=O)CC#N)CC1N(C)c1ncnc2[nH]ccc12` (configuration not stated), in experiment [4], the Ki is > 1.58 µM (inactive).
In the case of `CC(C)(C)NC(=O)CSc1nc2ccc(NC(=O)CSc3nnc(N)s3)cc2s1`, the IC50 is 17.1 µM (inactive) in experiment [5]; 3.87 µM (active) in experiment [6]; 18.4 µM (active) in experiment [7]; > 99 µM (inactive) in experiment [8]; 1.54 µM (active) in experiment [9]; 6.68 µM (active) in [10].
For the molecule `CC1CCCC(C)N1C(=O)COC(=O)c1ccc([N+](=O)[O-])o1` (configuration not stated), the AC50 in [11] was 95.7 µM (active).
`CC(C)c1ccc(N2C(=O)/C(=C/NNC(=O)c3ccccc3O)C(=O)NC2=S)cc1`: the EC50 in the experiment with Streptococcus is 7.21 µM (active); in [13], 7.63 µM (active). Besides, the IC50 in experiment [12] was 45.2 µM (active); at Prothrombin it was 48.4 µM (active); in [14], 52.9 µM (active).

The values are drawn from ChEMBL document CHEMBL1201862, “PubChem BioAssay data set” (2004).
